Results on two compounds are retold here after US20040009601A1, “Methods for the regeneration and transformation of cotton” (The Regents of the University of California, priority 2002, published 2004).

The subject of this assay is Maxxa hypocotyl explants. In words: Callus induction from Maxxa hypocotyl explants, orthogonal array L9 factorial experiment. It counts as cell-based, Gossypium hirsutum L. cv. Maxxa. The following applies: for Σ RG1: regeneration potential, mean Y of factor 1: factor 1 = 0 mg l-1 of the hormone; for Σ RG2: regeneration potential, mean Y of factor 2: factor 2 = 2,4-D 0.05, NAA 1.0, kinetin 0.5 mg l-1; for Σ RG3: regeneration potential, mean Y of factor 3: factor 3 = 2,4-D 0.1, NAA 2.0, kinetin 1.0 mg l-1; for Σ RG: mean of Σ RG1, Σ RG2 and Σ RG3: per hormone over the three factor levels. As to the method:
Hypocotyl explants ˜5 mm in length were excised from 7-10 day-old seedlings under sterile conditions. Explants were placed in a 25×100-mm petri dish (one seedling per plate) containing ˜30 ml of callus induction medium, sealed with parafilm and cultured at 28±2° C. under a combination of cool white and full spectrum fluorescent lights with a 16-hour light/8-hour dark cycle for 3 to 4 weeks to induce callus formation.
Initial experiments were conducted using MS2NK (2 mg 1^−1 NAA substituted for 2,4-D in MS2DK, Trolinder and Goodin, 1987), a medium used for callus induction in the elite regenerable Coker 312 line. To optimize a callus induction medium for Maxxa, a factorial experiment using an Orthogonal Array L9 (3^4) experimental design ((Taguchi, Introduction to Quality Engineering, Tokyo, Japan (1986)) was performed to determine the best hormonal regime for induction of callus capable of undergoing somatic embryogenesis. The optimal combination of NAA, 2,4-D and kinetin was evaluated at varying concentrations (Table 1) in basal MS medium (Murashige and Skoog, Physiol. Plant. 15:473-497 (1962)) in four independent experiments. In each experiment, 18 hypocotyl explants were excised from 24-48 individual seedlings to provide two explants per seedling per treatment. Each replicated treatment was evaluated for the ability to proliferate a friable callus that was yellowish-green to creamy in color, granular in texture, and readily dispersed in liquid medium. Calli characteristics were scored at 3 weeks and 6 weeks for color, texture, dispersiveness in liquid media, and cell/callus size as the parameters for evaluation. Based on these criteria, the optimized Maxxa callus induction medium (MCIM) selected for cotton regeneration is comprised of MS salts (GibcoBRL Cat no. 11117-074) supplemented with 100 mg 1^−1 myo-inositol, B5 vitamins (10 mg 1^−1 thiamine-HCl; 1 mg 1^−1 nicotinic acid; 1 mg 1^−1 pyridoxine), 0.75 g 1^−1 MgCl2, 30 g 1^−1 glucose, 2.0 mg 1^−1 NAA and 0.05 mg 1^−1 2,4-D. The medium was adjusted to pH 5.8 before adding agar (2.5 g 1^−1 Phytagel).
A factorial experiment using an orthogonal array L9 (3^4) design was conducted to determine optimal conditions for callus induction and somatic embryogenesis by Maxxa hypocotyl explants. Different hormonal combinations of auxin (NAA and/or 2,4-D) and cytokinin (kinetin) were tested at varying concentrations (Table 1) in basal MS medium (Murashige and Skoog, supra). Each of the 9 replicated treatments was scored for callus initiation efficiency (Y) based on two components—(I) the mean of the number of explants producing good quality callus and (II) embryogenic potential, that is, the developmental transition of undifferentiated callus to somatic embryogenesis—expressed as a percent (Table 1). The production and proliferation of callus considered of “good quality” was based on four criteria: color, texture, dispersiveness in liquid media, and size/shape of undifferentiated cells. Within each category, each callus was scored with a rating of 1 to 4 based on the following parameters: Color—dark green (4) to parrot-green/creamy (1), Texture—hard and compact (4) to soft and friable (1), Dispersiveness—intact (4) to readily dispersed cell clumps (1) in liquid medium, Size/Shape—small cells/compact callus (<1 mm) (4) to nodular, “grainy” callus (>2 mm) (1). Good quality callus received ratings of “1” in each category. The embryogenic potential (II) of Y represents the ability of undifferentiated parenchymal cells to organize into meristematic centers and successfully undergo somatic embryogenesis. The factors considered in determining II/Y included the formation of organized cell clusters in embryogenic cultures, the types of embryos produced (globular, heart-shaped, torpedo), and the color of the somatic embryo (white/transparent vs. yellow/opaque). […]

Each structure is given as a SMILES string.

Take `O=C(O)COc1ccc(Cl)cc1Cl` [2,4-D, 2,4-dichlorophenoxyacetic acid]: the “Importance of the hormone for callus induction from Maxxa hypocotyls, judged from Σ RG” value is reported as “essential for callus induction”; the “Σ RG1: regeneration potential, mean Y of factor 1” value worked out at 5.77%; the “Σ RG2: regeneration potential, mean Y of factor 2” value was 61.87%; the “Σ RG3: regeneration potential, mean Y of factor 3” value is reported as 77.07%. Moreover, the “Σ RG: mean of Σ RG1, Σ RG2 and Σ RG3” value was 71.30%.

With `c1coc(CNc2ncnc3[nH]cnc23)c1` [Kinetin, kinetin], the “Importance of the hormone for callus induction from Maxxa hypocotyls, judged from Σ RG” value is “not critical”; the “Σ RG1: regeneration potential, mean Y of factor 1” value turned out to be 63.27%; the “Σ RG2: regeneration potential, mean Y of factor 2” value was 32.78%; the “Σ RG3: regeneration potential, mean Y of factor 3” value amounted to 46.65%. Moreover, the “Σ RG: mean of Σ RG1, Σ RG2 and Σ RG3” value is 32.49%.
